These molecules were tested against T1, KRAS^G12C::SOS1 (Homo sapiens, UniProt Q07889) (assay: KRAS G12C::SOS1 protein-protein interaction (PPI) inhibition assay (HTRF binding kit)). Conditions: not given.
T1 sequence (Q07889 1-1333): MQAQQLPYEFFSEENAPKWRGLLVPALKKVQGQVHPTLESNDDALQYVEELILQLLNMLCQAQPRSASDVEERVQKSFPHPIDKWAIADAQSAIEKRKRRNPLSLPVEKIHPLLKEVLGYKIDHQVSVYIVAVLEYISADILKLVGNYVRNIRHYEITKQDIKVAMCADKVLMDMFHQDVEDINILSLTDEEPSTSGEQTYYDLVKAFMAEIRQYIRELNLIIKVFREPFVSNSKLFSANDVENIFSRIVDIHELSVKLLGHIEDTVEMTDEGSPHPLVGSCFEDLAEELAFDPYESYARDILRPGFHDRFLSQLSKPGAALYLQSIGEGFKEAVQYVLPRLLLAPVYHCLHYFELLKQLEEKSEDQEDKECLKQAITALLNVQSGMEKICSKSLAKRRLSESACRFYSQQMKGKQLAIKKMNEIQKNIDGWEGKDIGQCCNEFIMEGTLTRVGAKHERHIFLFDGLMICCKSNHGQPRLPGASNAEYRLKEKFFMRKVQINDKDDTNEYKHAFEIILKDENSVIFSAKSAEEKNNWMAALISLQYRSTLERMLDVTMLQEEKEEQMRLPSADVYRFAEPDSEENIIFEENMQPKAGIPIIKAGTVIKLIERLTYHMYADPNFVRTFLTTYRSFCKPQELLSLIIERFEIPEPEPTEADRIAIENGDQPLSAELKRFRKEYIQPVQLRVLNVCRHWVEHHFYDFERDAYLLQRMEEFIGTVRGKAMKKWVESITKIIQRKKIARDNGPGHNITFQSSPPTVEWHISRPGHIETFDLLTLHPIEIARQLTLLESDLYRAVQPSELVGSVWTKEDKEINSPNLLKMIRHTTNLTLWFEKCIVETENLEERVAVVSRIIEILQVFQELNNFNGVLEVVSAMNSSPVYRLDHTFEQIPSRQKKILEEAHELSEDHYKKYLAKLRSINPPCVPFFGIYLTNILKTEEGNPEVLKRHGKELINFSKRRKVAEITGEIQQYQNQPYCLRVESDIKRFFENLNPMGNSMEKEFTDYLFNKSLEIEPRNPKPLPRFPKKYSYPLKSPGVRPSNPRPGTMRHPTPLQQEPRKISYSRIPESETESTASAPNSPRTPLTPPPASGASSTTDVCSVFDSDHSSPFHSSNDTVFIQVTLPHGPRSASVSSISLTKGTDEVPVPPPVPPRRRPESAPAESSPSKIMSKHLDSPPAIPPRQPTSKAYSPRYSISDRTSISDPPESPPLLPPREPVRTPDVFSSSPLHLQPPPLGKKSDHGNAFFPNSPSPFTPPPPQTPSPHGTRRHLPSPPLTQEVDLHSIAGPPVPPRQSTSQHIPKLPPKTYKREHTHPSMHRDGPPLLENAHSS

| Molecule | IC50 [nM] |
| --- | --- |
| Cc1nnc(-c2cccc(-n3nc(C(=O)N[C@H](C)c4cc(N)cc(C(F)(F)F)c4)ccc3=O)c2)o1 [Example 319, N-[(1R)-1-[3-amino-5-(trifluoromethyl)phenyl]ethyl]-1-[3-(5-methyl-1,3,4-oxadiazol-2-yl)phenyl]-6-oxo-pyridazine-3-carboxamide] | < 1000 |
| C[C@@H](NC(=O)c1ccc(=O)n(-c2cccc(S(C)(=O)=O)c2)c1)c1cc(N)cc(C(F)(F)F)c1 [Example 167, N-[(1R)-1-[3-amino-5-(trifluoromethyl)phenyl]ethyl]-1-(3-methylsulfonylphenyl)-6-oxo-pyridine-3-carboxamide] | < 1000 |

These molecules were tested against T2, SOS1 (Homo sapiens, UniProt Q07889) (assay: SOS-catalyzed nucleotide exchange assay (HTRF, SOS1-mediated GTP loading of KRAS G12D)). Conditions: GST-KRAS G12D, HIS-SOS1cat, EDA-GTP-DY-647P1; compound 128 pM to 10 µM; read-out: SOS-catalyzed nucleotide exchange assay (IC50 range, Grade).
T2 construct: adding equal amounts of HIS-SOS1cat (160 nM; Cytoskeleton, US); His; purchased Cytoskeleton, US
T2 sequence (Q07889 564-1049 limits assumed): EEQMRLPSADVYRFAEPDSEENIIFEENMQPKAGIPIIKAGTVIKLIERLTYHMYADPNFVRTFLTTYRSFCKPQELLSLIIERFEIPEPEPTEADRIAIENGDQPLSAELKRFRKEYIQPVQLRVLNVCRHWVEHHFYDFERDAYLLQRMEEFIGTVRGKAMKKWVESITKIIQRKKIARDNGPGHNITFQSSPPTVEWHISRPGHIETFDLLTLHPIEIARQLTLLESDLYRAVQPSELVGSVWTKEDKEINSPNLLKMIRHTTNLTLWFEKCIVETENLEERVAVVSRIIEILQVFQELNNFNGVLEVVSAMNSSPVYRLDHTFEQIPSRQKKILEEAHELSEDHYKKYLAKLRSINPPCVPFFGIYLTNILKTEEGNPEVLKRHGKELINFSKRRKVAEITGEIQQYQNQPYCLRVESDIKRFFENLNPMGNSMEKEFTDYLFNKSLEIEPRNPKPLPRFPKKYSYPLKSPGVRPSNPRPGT
Type: biochemical
Description: SOS1 activity was measured by SOS1-mediated GTP loading quantification of KRAS^G12D. GTP-loaded KRAS^G12D was detected by HTRF (Homogeneous Time Resolved Fluorescence) using anti-GST terbium (Cisbio, France) as a donor and a fluorescence GTP analogue (EDA-GTP-DY-647P1, [DY-647P1-labeled 2'/3'-O-(2-aminoethyl-carbamoyl)guanosine-5'-triphosphate (Jena bioscience, Germany)]) as an acceptor.
Assay buffer was composed of 10 mM HEPES pH 7.4, 150 mM NaCl, 5 mM MgCl2, 1 mM DTT, 0.05% BSA Fraction V pH 7.0 (Sigma) and 0.0025% (v/v) Igepal (Sigma). KRAS^G12D working solution was prepared by adding equal amounts of GST-KRAS^G12D (100 nM) and anti-GST-terbium (2 nM; Cisbio, France) to the assay buffer and incubating on ice for 10 minutes. SOS1cat working solution was prepared by adding equal amounts of HIS-SOS1cat (160 nM; Cytoskeleton, US) and EDA-GTP-DY-647P1 (200 nM; Jena bioscience, Germany) to the assay buffer. Control solution was prepared by adding equal volumes of EDA-GTP-DY-647P1 and the assay buffer for normalization control to exclude GEF-independent GTP loading and background signals. In order to induce a reaction, 5 µL of the SOS1cat working solution or the control solution was injected into each well. 5 µL of a compound having various concentrations from 128 pM to 10 µM was added to wells containing the SOS1cat working solution and incubated at room temperature for 10 minutes to bind to SOS1.
10 µL of the KRAS^G12D solution was added to each well and incubated for 30 minutes at room temperature while shaking. HTRF was measured using a Thermo Varioskan (excitation 334 nm, emission 665 nm). The IC50 of each inhibitor was analyzed using Graphad Prism.
The SOS1 inhibitory activity of the Example compounds measured by the above method was evaluated based on the following criteria, and the results are shown in Table 29.

| Molecule | IC50 [nM] |
| --- | --- |
| C[C@@H](NC(=O)c1ccc(=O)n(-c2cccnc2)n1)c1cc(N)cc(C(F)(F)F)c1 [Example 26, (R)-N-(1-(3-amino-5-(trifluoromethyl)phenyl)ethyl)-6-oxo-1-(pyridin-3-yl)-1,6-dihydropyridazine-3-carboxamide] | < 1000 |
| Cc1ccc(-n2nc(C(=O)N[C@H](C)c3cc(N)cc(C(F)(F)F)c3)ccc2=O)s1 [Example 22, N-[(1R)-1-[3-amino-5-(trifluoromethyl)phenyl]ethyl]-1-(5-methyl-2-thienyl)-6-oxo-pyridazine-3-carboxamide] | < 1000 |
| C[C@@H](NC(=O)c1ccc(=O)n(-c2ccc(F)cc2F)c1)c1cc(N)cc(C(F)(F)F)c1 [Example 95, N-[(1R)-1-[3-amino-5-(trifluoromethyl)phenyl]ethyl]-1-(2,4-difluorophenyl)-6-oxo-1,6-dihydropyridine-3-carboxamide] | < 1000 |
| C[C@@H](NC(=O)c1ccc(=O)n(-c2ccccc2)n1)c1cccc(C(F)(F)CO)c1 [Example 57, N-[(1R)-1-[3-(1,1-difluoro-2-hydroxy-ethyl)phenyl]ethyl]-6-oxo-1-phenyl-pyridazine-3-carboxamide] | < 1000 |
| C[C@@H](NC(=O)c1ccc(=O)n(-c2ccccc2)n1)c1cccc(C#N)c1 [Example 4, (R)-N-(1-(3-cyanophenyl)ethyl)-6-oxo-1-phenyl-1,6-dihydropyridazine-3-carboxamide] | 1000 to 10000 |
| C[C@@H](NC(=O)c1ccc(=O)n(-c2ccccc2N)n1)c1cc(N)cc(C(F)(F)F)c1 [Example 51, (R)-N-(1-(3-amino-5-(trifluoromethyl)phenyl)ethyl)-1-(2-aminophenyl)-6-oxo-1,6-dihydropyridazine-3-carboxamide] | < 1000 |
| COc1ccccc1-n1nc(C(=O)N[C@H](C)c2cccc(C(F)(F)CO)c2)ccc1=O [Example 38, N-[(1R)-1-[3-(1,1-difluoro-2-hydroxyethyl)phenyl]ethyl]-1-(2-methoxyphenyl)-6-oxo-pyridazine-3-carboxamide] | < 1000 |
| (R)-1-([1,1'-biphenyl]-4-yl)-N-(1-(3-amino-5-(trifluoromethyl)phenyl)ethyl)-6-oxo-1,6-dihydropyridazine-3-carboxamide [Example 24] | 1000 to 10000 |
| C[C@@H](NC(=O)c1ccc(=O)n(-c2cccc(C(=O)OC(C)(C)C)c2)c1)c1cc(N)cc(C(F)(F)F)c1 [Example 72, Tert-butyl 3-(5-{[(1R)-1-[3-amino-5-(trifluoromethyl)phenyl]ethyl]carbamoyl}-2-oxo-1,2-dihydropyridin-1-yl)benzoate] | < 1000 |
| C[C@@H](NC(=O)c1ccc(=O)n(-c2ccccc2)n1)c1ccc(Cl)cc1 [Example 5, (R)-N-(1-(4-chlorophenyl)ethyl)-6-oxo-1-phenyl-1,6-dihydropyridazine-3-carboxamide] | > 10000 |
| CC(=O)N1CCC(n2nc(C(=O)N[C@H](C)c3cccc(Cl)c3)ccc2=O)CC1 [Example 18, 1-(1-acetyl-4-piperidyl)-N-[(1R)-1-(3-chlorophenyl)ethyl]-6-oxo-pyridazine-3-carboxamide] | 1000 to 10000 |
| C[C@@H](NC(=O)c1ccc(=O)n(-c2cccc(N3CCNC3=O)c2)c1)c1cc(N)cc(C(F)(F)F)c1 [Example 85, N-[(1R)-1-[3-amino-5-(trifluoromethyl)phenyl]ethyl]-6-oxo-1-[3-(2-oxoimidazolidin-1-yl)phenyl]-1,6-dihydropyridine-3-carboxamide] | < 1000 |
| C[C@@H](NC(=O)c1ccc(=O)n(-c2cccc(S(C)(=O)=O)c2)n1)c1cccc(C(F)(F)CO)c1 [Example 58, N-[(1R)-1-[3-(1,1-difluoro-2-hydroxy-ethyl)phenyl]ethyl]-1-(3-methylsulfonylphenyl)-6-oxo-pyridazine-3-carboxamide] | < 1000 |
| C[C@@H](NC(=O)c1ccc(=O)n(C2=CCCN(S(C)(=O)=O)C2)n1)c1cc(N)cc(C(F)(F)F)c1 [Example 69, N-[(1R)-1-[3-amino-5-(trifluoromethyl)phenyl]ethyl]-1-(1-methanesulfonyl-1,2,5,6-tetrahydropyridin-3-yl)-6-oxo-1,6-dihydropyridazine-3-carboxamide] | 1000 to 10000 |
| C[C@@H](NC(=O)c1ccc(=O)n(-c2ccccc2)n1)c1cccc(C(F)(F)F)c1 [Example 15, 6-oxo-1-phenyl-N-[(1R)-1-[3-(trifluoromethyl)phenyl]ethyl]pyridazine-3-carboxamide] | < 1000 |
| C[C@@H](NC(=O)c1ccc(=O)n(-c2ccccc2)n1)c1cccc(OC(F)(F)F)c1 [Example 10, 6-oxo-1-phenyl-N-[(1R)-1-[3-(trifluoromethoxy)phenyl]ethyl]pyridazine-3-carboxamide] | 1000 to 10000 |
| CC(=O)N1CC=C(n2nc(C(=O)N[C@H](C)c3cc(N)cc(C(F)(F)F)c3)ccc2=O)CC1 [Example 68, 1-(1-acetyl-1,2,3,6-tetrahydropyridin-4-yl)-N-[(1R)-1-[3-amino-5-(trifluoromethyl)phenyl]ethyl]-6-oxo-1,6-dihydropyridazine-3-carboxamide] | < 1000 |

From patent EP4667458A1 (Kanaph Therapeutics Inc., priority 2023, dated 2024)
